Measured values taken from paper PMC9146377, “Design and Synthesis of Novel Bis-Imidazolyl Phenyl Butadiyne Derivatives as HCV NS5A Inhibitors” (Pharmaceuticals, 2022).
Like-named read-outs stand apart in the source and are kept apart here.

What was measured:
[1] = tested on: HCV genotype 1a (strain H77S.3) full-length reporter viral RNA; experiment: microbe, parasite or virus in culture; format: cell-based, Hepatitis C virus
[2] = tested on: subgenomic replicon of HCV GT 2a (strain JFH1); experiment: Anti-HCV luciferase assay, genotype 2a replicon in Huh7-JFH1 cells; format: cell-based, Hepatitis C virus; details: for EC50: Huh7-JFH1 cells
Method: (§1) Specifically, we determined the activity of 10a against viral replication by measuring luciferase activity in Huh7-JFH1, Huh7.5-3a, and Huh7.5-4a stable cell lines containing subgenomic replicons of HCV GT 2a (strain JFH1), GT 3a (strain S52) and GT 4a (strain ED43), respectively. In addition, the activity of 10a was determined in Huh7-Lunet cells electroporated with the in vitro transcribed full-length reporter viral RNA of HCV genotype 1a (strain H77S.3).
Huh5-2 [65] and Huh7-JFH1 [66] stable cell lines harbor the subgenomic HCV reporter replicon I389luc-ubi-neo/NS3-3′/Con1/5.1 (genotype 1b; strain Con1) and I389luc-ubi-neo/NS3-3′_dg_JFH1 (genotype 2a, JFH1 strain), respectively (kindly provided by R. Bartenschlager, Heidelberg University, Heidelberg, Germany). Huh7.5-3a and Huh7.5-4a stable cell lines harbor the subgenomic HCV reporter replicon S52-SG (Feo) (AII) (genotype 3a; S52 strain) and ED43-SG (Feo) (VYG) (genotype 4a; ED43 strain), respectively (viral constructs kindly provided by C.M. Rice, Rockefeller University, New York, NY, USA). […]
(§2) The anti-HCV assay in replicon cells was performed by seeding 1 × 10^4 cells per well in a 96-well plate. […] Cells were lysed after 72 h, and F-Luc activity was measured. […] At 72 h post-treatment, cell supernatants were collected, and G-Luc activity was measured. In addition, the cells were lysed for total protein quantification.
(§3) Relative luminescence units (RLU) were expressed as a percentage of the respective units derived from DMSO-treated cells (control). […]
(§4) The F-Luc activity was measured using the Luciferase Assay System (Promega, Madison, WI, USA), as recommended by the manufacturer. The G-Luc activity was measured using 12 μM coelenterazine (Promega) in assay buffer (50 mM potassium phosphate, pH 7.4, 500 mM NaCl, 1 mM EDTA). […] The F-Luc activity was normalized to the total protein amount determined using the Bradford assay reagent (Pierce, Waltham, MA, USA).

[3] = tested on: subgenomic replicon of HCV GT 3a (strain S52); experiment: Anti-HCV luciferase assay, genotype 3a replicon in Huh7.5-3a cells; format: cell-based; details: Hepatitis C virus, GT3A, read-out: Gt3a EC50
Method: as §1, with “H77S.3). […]” for “H77S.3).”
as §2, §3, §4

[4] = tested on: subgenomic replicon of HCV GT 4a (strain ED43); experiment: Anti-HCV luciferase assay, genotype 4a replicon in Huh7.5-4a cells; format: cell-based, Hepatitis C virus
Method: as §1, with “H77S.3). […]” for “H77S.3).”
as §2, §3, §4

[5] = tested on: (+) strand HCV RNA, Con1 (GT 1b) subgenomic replicon; experiment: RT-qPCR quantification of HCV RNA in Huh5-2 replicon cells; format: cell-based, Hepatitis C virus; details: normalized to YWHAZ
Method: (§5) The potency of compound 10a measured by the luciferase assay in HCV GT 1b was confirmed at the level of viral RNA and NS5A protein expression. Huh5-2 replicon cells were treated with 10a in serial dilutions, or its solvent DMSO (control), and viral RNA was quantified by reverse transcription-quantitative polymerase chain reaction (RT-qPCR). NS5A protein levels were evaluated by indirect immunofluorescence combined with confocal microscopy analysis. […] Nuclei were stained with propidium iodide (PI) as a cell viability control.
Extraction of total RNA from Huh5-2 cells was performed using TRIzol reagent (Ambion, Austin, TX, USA), according to the manufacturer’s instructions. Replicon RNA was quantified with reverse transcription (RT) and quantitative real-time polymerase chain reaction (qPCR). RT was performed using a Con1 IRES-specific primer (IRES-R: 5′-[…]-3′) and Moloney Murine Leukemia Virus (MMLV) reverse transcriptase (Promega). […]
Figure 6 Inhibition of HCV RNA and protein expression levels exerted by compound 10a in HCV Con1 (GT 1b) subgenomic replicon cell line. […] Values are expressed as a percentage of those obtained from cells treated with the solvent (control). […]

[6] = tested on: NS5A protein expression, HCV Con1 (GT 1b); experiment: Indirect immunofluorescence for NS5A in Huh5-2 replicon cells; format: cell-based, Hepatitis C virus; details: 10-fold serial dilutions, confocal microscopy
Method: as §5
An indirect immunofluorescence analysis of Con1 NS5A was performed as described previously. Propidium iodide (Sigma-Aldrich, St. Louis, MO, USA) was used to stain the DNA. Images were obtained with a Leica TCS-SP8 Confocal Microscope (Wetzlar, Germany).
Figure 6 Inhibition of HCV RNA and protein expression levels exerted by compound 10a in HCV Con1 (GT 1b) subgenomic replicon cell line. (A) RT-qPCR analysis of (+) strand HCV RNA levels in Huh5-2 replicon cells treated with 10-fold serial dilutions of compound 10a or the solvent DMSO. Values are expressed as a percentage of those obtained from cells treated with the solvent (control). The housekeeping gene YWHAZ (tyrosine 3-monooxygenase/tryptophan 5-monooxygenase activation protein zeta) was used as a normalization control. […]

[7] = Phase I and phase II metabolic stability in human liver S9 fractions; format: in vitro ADME; details: LC-MS/MS, read-out: half-life time (t½)
Method: This was done using human liver S9 fractions, following the previously reported protocol. A number of samples were taken at defined time points, and using LC-MS/MS, the remaining percentage of the parent compound was determined.

SMILES: COC(=O)N[C@@H](C(=O)N1CCC[C@H]1c1ncc(-c2cccc(C#CC#Cc3cccc(-c4cnc([C@@H]5CCCN5C(=O)[C@H](NC(=O)OC)c5ccccc5)[nH]4)c3)c2)[nH]1)c1ccccc1 [Compound 10a, Dimethyl ((1R,1′R)-((2S,2′S)-((buta-1,3-diyne-1,4-diylbis(3,1-phenylene))bis(1H-imidazole-5,2-diyl))bis(pyrrolidine-2,1-diyl))bis(2-oxo-1-phenylethane-2,1-diyl))dicarbamate]
- Gt1a SI ([1]; HCV 1a (H77) full length): >2792.52
- EC50 ([1]; Hepatitis C virus, Huh-7, 72 h, read-out: Gt1a EC50): 35.8 nM
- Gt2a SI [2]: >3567.61
- EC50 ([2]; Hepatitis C virus, GT2A): 28 nM
- EC50 ([2]; listed as Comp. 10a, read-out: Gt2a EC50): 28 nM
- EC50 [3]: 128 nM
- Gt4a SI ([4]; ED43 replicon): >1537.52
- EC50 ([4]; Hepatitis C virus, GT4A, read-out: Gt4a EC50): 65 nM
- EC50 ([5]; Hepatitis C virus, GT1B, Huh-5-2, RT-qPCR): 0.255 nM
- EC50 ([5]; RT-qPCR): 0.25 nM
- NS5A protein expression [6]: reduction of NS5A expression
- half-life [7]: > 2 h
